Experimental data as given in ChEMBL document CHEMBL5032490, “Neuroactive Type-A γ-Aminobutyric Acid Receptor Allosteric Modulator Steroids from the Hypobranchial Gland of Marine Mollusk, Conus geographus” (J Med Chem, 2021).
Activity calls are given as the source filed them.

Assays:
[1] = Reduction of ATP and Kcl-induced increase in cytosolic Ca2+ ion concentration mouse non-peptidergic nociceptive DRG neuron assessed as neuron population at 10 uM measured after 1 hr by Fura2AM dye based fluorescence microscopic analysis; type: functional; set-up: scale not given: the % may be the effect or the level left
[2] = target: GABA A receptor alpha-4/beta-3/gamma-2 (Homo sapiens, UniProt P18507+P28472+P48169); experiment: Negative allosteric modulation activity at human GABAA alpha4beta3gamma2 stably expressed in HEK cells by patch clamp method; type: cell-based
Chain of GABA A receptor alpha-4/beta-3/gamma-2 (P48169 whole entry, one chain of several): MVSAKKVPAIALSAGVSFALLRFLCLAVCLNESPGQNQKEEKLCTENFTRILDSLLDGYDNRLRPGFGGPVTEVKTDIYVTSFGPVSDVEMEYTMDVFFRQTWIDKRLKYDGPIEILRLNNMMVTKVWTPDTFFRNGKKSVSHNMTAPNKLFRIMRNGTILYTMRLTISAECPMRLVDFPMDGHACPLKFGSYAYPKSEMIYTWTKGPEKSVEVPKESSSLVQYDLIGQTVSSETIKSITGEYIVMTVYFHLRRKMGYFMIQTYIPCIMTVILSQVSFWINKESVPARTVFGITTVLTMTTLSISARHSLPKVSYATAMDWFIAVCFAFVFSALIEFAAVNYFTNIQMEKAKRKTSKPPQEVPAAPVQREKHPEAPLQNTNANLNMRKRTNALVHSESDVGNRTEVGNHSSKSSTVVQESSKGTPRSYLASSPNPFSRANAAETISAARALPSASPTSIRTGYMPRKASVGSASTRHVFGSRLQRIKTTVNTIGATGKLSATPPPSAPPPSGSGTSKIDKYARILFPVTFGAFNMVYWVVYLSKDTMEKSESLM

[3] = target: T1, GABA-A receptor; alpha-5/beta-3/gamma-2 (Homo sapiens, UniProt P18507+P28472+P31644); experiment: Negative allosteric modulation activity at human GABAA alpha5beta3gamma2 stably expressed in HEK cells by patch clamp method; type: cell-based
T1 sequence (P18507 whole entry): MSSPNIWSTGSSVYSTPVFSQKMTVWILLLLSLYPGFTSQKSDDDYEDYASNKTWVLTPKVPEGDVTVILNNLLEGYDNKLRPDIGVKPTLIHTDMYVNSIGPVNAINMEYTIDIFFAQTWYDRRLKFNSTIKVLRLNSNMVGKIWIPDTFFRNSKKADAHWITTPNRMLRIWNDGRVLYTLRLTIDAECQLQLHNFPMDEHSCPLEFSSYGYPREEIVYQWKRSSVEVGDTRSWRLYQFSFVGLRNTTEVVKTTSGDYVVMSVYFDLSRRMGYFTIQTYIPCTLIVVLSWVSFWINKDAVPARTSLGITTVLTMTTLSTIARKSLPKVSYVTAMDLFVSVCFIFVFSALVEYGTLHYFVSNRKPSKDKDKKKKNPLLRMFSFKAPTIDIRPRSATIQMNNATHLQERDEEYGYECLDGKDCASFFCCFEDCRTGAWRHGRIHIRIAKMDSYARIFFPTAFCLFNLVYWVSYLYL
T1 sequence (P28472 whole entry): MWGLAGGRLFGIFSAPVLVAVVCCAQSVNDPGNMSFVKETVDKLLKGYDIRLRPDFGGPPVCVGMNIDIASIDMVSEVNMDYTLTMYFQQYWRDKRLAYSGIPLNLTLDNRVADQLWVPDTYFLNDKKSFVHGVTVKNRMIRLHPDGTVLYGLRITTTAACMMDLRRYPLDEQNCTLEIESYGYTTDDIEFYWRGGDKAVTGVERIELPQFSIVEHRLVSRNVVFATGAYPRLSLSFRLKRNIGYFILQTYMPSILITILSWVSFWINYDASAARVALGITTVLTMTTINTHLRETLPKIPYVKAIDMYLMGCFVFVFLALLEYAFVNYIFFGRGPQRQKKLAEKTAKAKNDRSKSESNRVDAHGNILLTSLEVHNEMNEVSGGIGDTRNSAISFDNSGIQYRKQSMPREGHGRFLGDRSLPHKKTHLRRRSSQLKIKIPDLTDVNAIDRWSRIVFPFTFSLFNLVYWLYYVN
T1 sequence (P31644 whole entry): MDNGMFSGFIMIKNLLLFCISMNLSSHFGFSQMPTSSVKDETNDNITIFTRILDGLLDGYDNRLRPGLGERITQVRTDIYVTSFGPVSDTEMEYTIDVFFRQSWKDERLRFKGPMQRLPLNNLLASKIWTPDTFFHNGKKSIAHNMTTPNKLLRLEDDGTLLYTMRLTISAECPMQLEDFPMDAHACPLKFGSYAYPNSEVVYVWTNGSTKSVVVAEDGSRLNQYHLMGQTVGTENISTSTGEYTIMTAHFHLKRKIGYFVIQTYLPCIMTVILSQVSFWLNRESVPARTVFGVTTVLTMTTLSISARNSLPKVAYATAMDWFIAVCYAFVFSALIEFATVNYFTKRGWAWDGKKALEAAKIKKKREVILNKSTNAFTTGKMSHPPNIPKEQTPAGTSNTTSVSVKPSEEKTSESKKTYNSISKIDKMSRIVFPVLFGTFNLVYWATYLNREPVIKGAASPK

[4] = Reduction of ATP and Kcl-induced increase in cytosolic Ca2+ ion concentration mouse DRG other neuron subtype assessed as neuron population at 10 uM measured after 1 hr by Fura2AM dye based fluorescence microscopic analysis; type: functional; set-up: scale not given: the % may be the effect or the level left
[5] = target: T2, GABA-A receptor; alpha-3/beta-3/gamma-2 (Homo sapiens, UniProt P18507+P28472+P34903); experiment: Negative allosteric modulation activity at human GABAA alpha3beta3gamma2 stably expressed in HEK cells by whole cell patch clamp method; type: cell-based
T2 sequence (P18507 whole entry): T1 sequence (P18507 whole entry)
T2 sequence (P28472 whole entry): T1 sequence (P28472 whole entry)
T2 sequence (P34903 whole entry): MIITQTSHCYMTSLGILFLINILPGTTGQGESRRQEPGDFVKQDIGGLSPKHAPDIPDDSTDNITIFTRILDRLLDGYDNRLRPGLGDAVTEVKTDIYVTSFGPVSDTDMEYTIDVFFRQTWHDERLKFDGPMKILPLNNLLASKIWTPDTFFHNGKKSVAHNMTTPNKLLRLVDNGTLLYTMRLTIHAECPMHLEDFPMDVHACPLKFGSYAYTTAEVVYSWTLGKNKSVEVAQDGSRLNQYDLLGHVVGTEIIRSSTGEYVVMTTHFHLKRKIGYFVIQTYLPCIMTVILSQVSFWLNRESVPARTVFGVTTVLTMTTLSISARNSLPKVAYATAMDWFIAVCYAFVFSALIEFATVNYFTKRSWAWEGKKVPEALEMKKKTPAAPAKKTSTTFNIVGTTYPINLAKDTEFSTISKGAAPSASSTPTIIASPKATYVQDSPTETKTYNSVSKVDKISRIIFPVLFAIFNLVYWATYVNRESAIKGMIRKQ

[6] = Reduction of ATP and Kcl-induced increase in cytosolic Ca2+ ion concentration mouse peptidergic nociceptive DRG neuron assessed as neuron population at 10 uM measured after 1 hr by Fura2AM dye based fluorescence microscopic analysis; type: functional; set-up: scale not given: the % may be the effect or the level left
Neuron [7] = experiment: Negative allosteric modulation of mouse GABA receptor in mouse C-low-threshold mechanoreceptive DRG neurons assessed as inhibition of KCl-induced response at 40 uM; type: tissue-based; conditions: filed as negative allosteric modulator
Neuron [8] = experiment: Negative allosteric modulation of mouse GABA receptor in mouse C-low-threshold mechanoreceptive DRG neurons assessed as inhibition of KCl-induced response at 10 uM; type: tissue-based; conditions: filed as negative allosteric modulator
[9] = Induction of cytosolic calcium ion concentration in mouse peptidergic nociceptive DRG neuron at 10 uM measured after 1 hr by Fura2AM dye based fluorescence microscopic analysis; type: functional
[10] = Induction of ATP and Kcl-induced increase in cytosolic Ca2+ ion concentration mouse DRG other neuron subtype assessed as neuron population at 10 uM measured after 1 hr by Fura2AM dye based fluorescence microscopic analysis; type: functional
Neuron [11] = experiment: Negative allosteric modulation of mouse GABA receptor in mouse DRG neurons assessed as inhibition of KCl-induced response at 10 uM using cold thermosensors; type: tissue-based; conditions: filed as negative allosteric modulator

**Q.** For `CC(C)CCC[C@@H](C)[C@H]1CC[C@H]2[C@@H]3C(=O)C=C4C=CCC[C@]4(C)[C@H]3CC[C@]12C`, which Activity [1] is on record?
**A.** 9%

**Q.** And the IC50 [2]?
**A.** 1 µM

**Q.** What about the IC50 [3] of the same molecule?
**A.** 19.4 µM

**Q.** What about the Activity [4] of the same molecule?
**A.** 5%

**Q.** And the IC50 [5]?
**A.** 5.5 µM

**Q.** What about the Activity [6] of the same molecule?
**A.** 4%

**Q.** And the Activity (Neuron [7])?
**A.** Active

**Q.** What about the Activity (Neuron [8]) of the same molecule?
**A.** Active

**Q.** What about the Activity [9] of the same molecule?
**A.** 33%

**Q.** And the Activity [10]?
**A.** 7%

**Q.** What about the Activity (Neuron [11]) of the same molecule?
**A.** Active
